In the Biogen ADME set (Fang et al. 2023):
In brackets after ≈: the same amount, converted by molar mass.

Settings: for aqueous solubility: pH 6.8

Structure (SMILES) | MDR1-MDCK efflux ratio | intrinsic clearance, human liver microsomes [mL/min/kg] | intrinsic clearance, rat liver microsomes [mL/min/kg] | aqueous solubility [µg/mL] | fraction unbound, human plasma | fraction unbound, rat plasma
O=c1c2cccnc2ncn1[C@H]1CCN(Cc2ccccc2)C1 | 0.776 | ≤ 4.74 | 162 | – | – | –
O=C(Nc1ccc(S(=O)(=O)Nc2ccnn2-c2ccccc2)cc1)c1ccco1 | 48.8 | 8.1 | 102 | 63.4 (≈ 155 µM) | – | –
N#Cc1ccc2nc(NCCn3ccnc3)ccc2c1 | 4.78 | 6.36 | 54.5 | – | – | –
CCc1nnc(Nc2cccc(C3CCCN(CC(=O)N4CCCC4)C3)n2)s1 (centres undefined) | 35 | 48.7 | 186 | 53.5 (≈ 134 µM) | – | –
Cc1ccc(=O)n(CCOc2ccc(Cl)c(F)c2)n1 | 0.684 | 71.2 | 631 | – | – | –
NC1CCCC(C(=O)Nc2cccc(N3CCNC3=O)c2)C1 (centres undefined) | 1.33 | ≤ 4.74 | – | – | 0.58 | –
N#CCc1ccc(NC(=O)C2CC2)cc1 | – | – | – | 30.6 (≈ 153 µM) | – | –
CC(C)c1nccn1Cc1nc2ccccc2[nH]1 | 24.4 | ≤ 4.74 | 238 | – | – | –
CC(C)N1CCN(CCCSc2ccccn2)CC1 | 0.74 | 128 | 1080 | – | – | –
c1ccc(CNc2nn3nnnc3c3ccccc23)cc1 | 0.624 | – | – | 0.1 (≈ 0.362 µM) | – | –
O=C(Cc1c(F)cccc1Cl)Nc1cccc2cnccc12 | 0.889 | 62.6 | 288 | 2.09 (≈ 6.64 µM) | – | –
Cc1nn(CCC#N)c(C)c1Oc1ccccc1O | 1.57 | ≤ 4.74 | 112 | 36.7 (≈ 143 µM) | – | –
O=C(Nc1ccc2c(c1)N(CC(F)F)C(=O)CS2)C1CC=CC1 | 0.742 | 52.6 | 391 | – | – | –
CN(CCO)C(=O)c1ccc(-c2cccc(C(F)(F)F)n2)cc1 | 1.52 | ≤ 4.74 | 54.3 | – | – | –
Cc1ccc2nc3c(c(C(=O)NCc4nnc5n4CCC5)c2c1)CCCC3 | 32.9 | ≤ 4.74 | 28.8 | 57.1 (≈ 158 µM) | – | –
Cc1cc(Nc2nnc(C)s2)cc(C2CN(C(=O)c3c(C(C)C)noc3C)CCO2)n1 (centres undefined) | 54.3 | 22.5 | 151 | – | – | –
CN(C[C@@H]1COCCO1)S(=O)(=O)Nc1ccc2ccc3ncc(-c4cnn(C)c4)cc3c(=O)c2c1 | 15.5 | 44.3 | 219 | 3.36 (≈ 6.78 µM) | – | –
c1ccc(-c2noc(NCC3CCC3)n2)cc1 | 0.605 | 119 | 741 | 34.7 (≈ 151 µM) | – | –
CCn1cc(C2CCN(Cc3ccc(C#N)cc3)CC2)cn1 | 0.45 | 12.2 | 188 | 43 (≈ 146 µM) | – | –
Nc1cncc(-c2ccc(CN3CCCCC3)cc2)c1 | 0.743 | 40.7 | 56.3 | 26 (≈ 97.1 µM) | – | –

Structure (SMILES) | MDR1-MDCK efflux ratio | intrinsic clearance, human liver microsomes [mL/min/kg] | intrinsic clearance, rat liver microsomes [mL/min/kg] | aqueous solubility [µg/mL] | fraction unbound, human plasma | fraction unbound, rat plasma
Cc1nnc(N2CCC(CNc3ccc(C#N)cn3)C2)c(C#N)c1C (centres undefined) | – | – | – | 8.15 (≈ 24.4 µM) | – | –
CN(C)CCN(Cc1ccccc1)Cc1ccccc1O | 0.84 | 330 | 1380 | 41.9 (≈ 147 µM) | – | –
CC1Cc2ccccc2N1C(=O)CN1CCC(n2c(=O)[nH]c3ccccc32)CC1 (centres undefined) | 29 | 61.3 | 1030 | 54.8 (≈ 140 µM) | – | –
Cc1cc(C)nc(SCC(=O)N2c3ccccc3C(C)(c3ccccc3)CC2(C)C)n1 (centres undefined) | – | 2360 | 3130 | – | – | –
CN(C)c1ccncc1CN1CCN(c2ccc(C(N)=O)cc2)CC1 | 18.8 | ≤ 4.74 | ≤ 10.7 | – | – | –
COc1ccc(-c2ccc(CNc3ccc(CN4CCC(C)CC4)cc3)cc2)cc1 | – | 124 | 32.9 | 14.7 (≈ 36.7 µM) | – | –
CC(=O)Nc1cccc(OCC(=O)N2CCCCC2)c1 | 11.9 | ≤ 4.74 | 126 | 42.4 (≈ 153 µM) | – | –
C#CCNC(=O)Cc1coc2cc(OC)ccc12 | 0.646 | 15.4 | 183 | 56.4 (≈ 232 µM) | – | –
O=C(NCC(=O)N1CCN(C2CC2)CC1)c1ccccc1 | 0.659 | ≤ 4.74 | ≤ 10.7 | 62.3 (≈ 217 µM) | – | –
COc1ccc(CN2CCC(c3nc(C(C)C)no3)CC2)c(F)c1 | 0.777 | 35 | 1710 | 47.1 (≈ 141 µM) | – | –
Cc1nc(C)c2c(C)c(C(=O)N(C)Cc3ccc(C)o3)sc2n1 | 1.1 | 36 | 2890 | 37.5 (≈ 114 µM) | – | –
Cc1cc(C(=O)NC2CCN(C(=O)c3cc(C)sc3C)CC2)no1 | 1.56 | 9.77 | 93.7 | 61.2 (≈ 176 µM) | – | –
O=c1c2cnccc2ncn1Cc1ccc2c(c1)CCCO2 | 0.724 | 45.9 | 281 | – | – | –
Cc1ccc(CCNc2ccc(C#N)nc2)cn1 | 0.552 | ≤ 4.74 | 45.1 | – | – | –
CC1CCN(C(=O)c2n[nH]c3ccccc23)CC1 | 0.561 | 21.4 | 916 | 26.4 (≈ 109 µM) | – | –
COc1cc(Br)c(Nc2nc(-c3c(C)nc4ncccn34)cs2)c(Br)c1 | 2.59 | 75.9 | 519 | 29.1 (≈ 58.7 µM) | – | –
CCN(CC)C(=O)N1CCCN(C(=O)N(CC)CC)CC1 | 4.51 | 68.5 | 698 | 48.6 (≈ 163 µM) | – | –
Cc1nn(Cc2csc(-c3cccs3)n2)c(N)c1C#N | 0.689 | 19.2 | 388 | 39.6 (≈ 131 µM) | – | –
CC(C)(C)C(=O)N1CCC(Cc2ccc(-c3cccs3)cc2)(C(=O)N2CCCC2)CC1 | 0.998 | 223 | 1440 | 23 (≈ 52.4 µM) | 0.00655 | 0.0102
Cc1ccc(-c2nc(CC(=O)NCCC(C)C)cs2)cc1 | 0.529 | 464 | 6110 | 8.17 (≈ 27 µM) | – | –
